27 compounds from patent publication US11066369B2, “N-(pyridin-2-yl)pyridine-sulfonamide derivatives and their use in the treatment of disease” (Novartis AG, priority 2016, dated 2021) can be followed below.

Each structure is given as a SMILES string. pEC50: −log10 of the molar value. Where a name gives a salt, the structure may show the parent alone. Read-outs that look alike come from different tables or passages of the source.

For this assay, the target named is T1, horseradish peroxidase (HRP) tagged delF508-CFTR (Homo sapiens, UniProt P13569, DEL508-508).
T1 construct: expressed in transfected cells
Kind of assay: Measurement of delF508-CFTR-HRP surface expression in CFBE41o- cells.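 For DelF508-CFTR-HRP Amax %: percent efficacy relative to reference corrector lumacaftor.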 The class given is cell-based. The following applies: CFBE41o- cells; for pEC50: read-out: DelF508-CFTR-HRP EC50; for Emax: read-out: DelF508-CFTR-HRP Amax %. In a few lines: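 Surface-trafficked delF508-CFTR detected via extracellular HRP tag, read as luminescence from a membrane-impermeant substrate in CFBE41o- cells. Cells pre-induced 48h with 500 ng/mL doxycycline, then exposed 24h at 37° C to a 10-point, 3-fold dilution series from 10 μM (DMSO ≤0.5%). Triplicate dose-responses fitted logistically for EC50 after per-plate normalization; fold change versus reference compound.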

Setting [1] is: mean of at least two replicates.
The mark [2] stands for this setting: delF508-CFTR-HRP surface expression.

T1 sequence (P13569 with tags, fused parts or gaps DEL508-508): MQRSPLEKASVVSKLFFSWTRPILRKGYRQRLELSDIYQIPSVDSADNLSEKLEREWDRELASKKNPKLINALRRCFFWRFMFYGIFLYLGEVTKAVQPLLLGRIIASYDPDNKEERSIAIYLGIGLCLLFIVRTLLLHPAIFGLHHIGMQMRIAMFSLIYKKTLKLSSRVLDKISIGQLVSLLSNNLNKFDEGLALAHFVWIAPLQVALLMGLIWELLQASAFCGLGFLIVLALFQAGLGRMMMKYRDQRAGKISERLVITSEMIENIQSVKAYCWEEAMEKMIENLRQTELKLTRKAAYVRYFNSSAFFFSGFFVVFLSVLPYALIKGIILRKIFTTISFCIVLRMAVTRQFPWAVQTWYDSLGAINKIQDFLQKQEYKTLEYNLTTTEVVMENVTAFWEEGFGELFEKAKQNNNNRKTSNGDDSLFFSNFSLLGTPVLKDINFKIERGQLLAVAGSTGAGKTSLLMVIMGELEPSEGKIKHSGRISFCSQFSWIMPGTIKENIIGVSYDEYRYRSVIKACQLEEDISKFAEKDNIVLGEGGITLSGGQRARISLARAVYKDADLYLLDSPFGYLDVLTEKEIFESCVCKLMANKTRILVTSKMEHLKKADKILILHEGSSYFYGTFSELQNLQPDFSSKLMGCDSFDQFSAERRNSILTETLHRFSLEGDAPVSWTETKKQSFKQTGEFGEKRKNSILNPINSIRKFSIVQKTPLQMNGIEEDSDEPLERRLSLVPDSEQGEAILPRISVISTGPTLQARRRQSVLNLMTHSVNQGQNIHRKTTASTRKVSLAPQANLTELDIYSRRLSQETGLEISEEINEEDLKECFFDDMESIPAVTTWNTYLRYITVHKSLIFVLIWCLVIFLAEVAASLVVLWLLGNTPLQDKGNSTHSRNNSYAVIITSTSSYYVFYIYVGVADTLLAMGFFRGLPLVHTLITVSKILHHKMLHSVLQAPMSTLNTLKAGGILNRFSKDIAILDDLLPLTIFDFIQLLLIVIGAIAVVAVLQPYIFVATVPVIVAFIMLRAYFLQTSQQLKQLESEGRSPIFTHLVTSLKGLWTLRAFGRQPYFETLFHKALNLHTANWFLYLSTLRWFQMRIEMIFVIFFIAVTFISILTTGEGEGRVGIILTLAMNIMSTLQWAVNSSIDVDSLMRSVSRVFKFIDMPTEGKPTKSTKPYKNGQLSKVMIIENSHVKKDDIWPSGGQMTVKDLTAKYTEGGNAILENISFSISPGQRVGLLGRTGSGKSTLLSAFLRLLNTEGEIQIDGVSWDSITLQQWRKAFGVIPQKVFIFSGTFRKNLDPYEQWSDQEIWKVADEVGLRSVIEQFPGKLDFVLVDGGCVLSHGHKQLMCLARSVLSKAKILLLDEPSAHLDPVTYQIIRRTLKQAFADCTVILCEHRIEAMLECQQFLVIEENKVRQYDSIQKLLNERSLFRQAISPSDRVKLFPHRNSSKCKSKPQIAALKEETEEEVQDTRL

In the case of `C[C@@]1(C(=O)O)CCCN(c2cccc(S(=O)(=O)Nc3ccc(C(F)(F)F)c(-c4ccccc4C4CC4)n3)n2)C1` [Example 413, (R)-1-(6-(N-(6-(2-cyclopropylphenyl)-5-(trifluoromethyl)pyridin-2-yl)sulfamoyl)pyridin-2-yl)-3-methylpiperidine-3-carboxylic Acid], the negative logarithm of the EC50 (pEC50) under setting [1] was 6.24. In addition, the Emax (surface expression Amax) came to 906%.
Take `CC(C)COc1ccccc1-c1nc(NS(=O)(=O)c2cccc(N3CCCC(C)(C(=O)O)C3)n2)ccc1C(F)(F)F` (centres unmarked) [Example 386, 1-(6-(N-(6-(2-isobutoxyphenyl)-5-(trifluoromethyl)pyridin-2-yl)sulfamoyl)pyridin-2-yl)-3-methylpiperidine-3-carboxylic Acid]: the pEC50 under setting [1] was 6.22.
In the case of `COc1ccc(NS(=O)(=O)c2cccc(N)n2)nc1-c1c(C)cccc1C` [Example 72, 6-amino-N-(6-(2,6-dimethylphenyl)-5-methoxypyridin-2-yl)pyridine-2-sulfonamide hydrochloride], under setting [2], the Emax worked out at 193% and the negative-log EC50 (pEC50) is 5.47.
Taken in the same sequence, the figures for `Cc1ccc(C#N)cc1-c1nc(NS(=O)(=O)c2cccc(N)n2)ccc1Cl` [Example 84, 6-amino-N-(5-chloro-6-(5-cyano-2-methylphenyl)pyridin-2-yl)pyridine-2-sulfonamide] were 111% and 5.81.
Taken in the same sequence, the figures for `Cc1cccc(C)c1-c1nc(NS(=O)(=O)c2cccc(N)n2)cc(C(F)(F)F)c1Cl` [Example 8, 6-amino-N-(5-chloro-6-(2,6-dimethylphenyl)-4-(trifluoromethyl)pyridin-2-yl)pyridine-2-sulfonamide] were 608% and 5.87.
Turning to `Nc1cccc(S(=O)(=O)Nc2ccc(Cl)c(-c3cc(F)ccc3C3CC3)n2)n1` [Example 21, 6-amino-N-(5-chloro-6-(2-cyclopropyl-5-fluorophenyl)pyridin-2-yl)pyridine-2-sulfonamide], under setting [2], the Emax came to 493% and the pEC50 is 5.87.
The corresponding values for `Cc1ccccc1-c1nc(NS(=O)(=O)c2cccc(N3CCN(C(=O)OC(C)(C)C)[C@@H](C(=O)O)C3)n2)ccc1C(F)(F)F` [Example 338, (2R)-1-[(tert-butoxy)carbonyl]-4-(6-{[6-(2-methylphenyl)-5-(trifluoromethyl)pyridin-2-yl]sulfamoyl}pyridin-2-yl)piperazine-2-carboxylic Acid] are 542% and 5.55.
For `Cc1cccc(F)c1-c1nc(NS(=O)(=O)c2cccc(N)n2)ccc1Cl` [Example 31, 6-amino-N-(5-chloro-6-(2-fluoro-6-methylphenyl)pyridin-2-yl)pyridine-2-sulfonamide], under setting [2], the Emax came out at 418% and the pEC50 is 5.88.
`CCCc1ccccc1-c1nc(NS(=O)(=O)c2cccc(N3CCCC(C)(C(=O)O)C3)n2)ccc1C(F)(F)F` (centres unmarked) [Example 401, 3-methyl-1-(6-(N-(6-(2-propylphenyl)-5-(trifluoromethyl)pyridin-2-yl)sulfamoyl)pyridin-2-yl)piperidine-3-carboxylic Acid]: the negative logarithm of the EC50 (pEC50) under setting [1] was 6.10.
With `CC(C)c1ccccc1-c1nc(NS(=O)(=O)c2cccc(N3CCC[C@@](C)(C(=O)O)C3)n2)ccc1C(F)(F)F` [Example 384, (R)-1-(6-(N-(6-(2-isopropylphenyl)-5-(trifluoromethyl)pyridin-2-yl)sulfamoyl)pyridin-2-yl)-3-methylpiperidine-3-carboxylic Acid], under setting [1], the pEC50 was 6.30.
In the case of `O=S(=O)(Nc1ccc(C(F)(F)F)c(-c2cccc(F)c2Cl)n1)c1cccc(N2CCNCC2)n1` [Example 155, N-(6-(2-chloro-3-fluorophenyl)-5-(trifluoromethyl)pyridin-2-yl)-6-(piperazin-1-yl)pyridine-2-sulfonamide hydrochloride], under setting [2], the Emax came to 196% and the pEC50 is 5.36.
`Cc1ccccc1-c1nc(NS(=O)(=O)c2cccc(N3CCN[C@@H](C(=O)O)C3)n2)ccc1C(F)(F)F` [Example 341, (2R)-4-(6-{[6-(2-methylphenyl)-5-(trifluoromethyl)pyridin-2-yl]sulfamoyl}pyridin-2-yl)piperazine-2-carboxylic Acid]: under setting [2], the Emax came to 89.2% and the pEC50 was 5.52.
With `[2H]C([2H])([2H])c1ccccc1-c1nc(NS(=O)(=O)c2ccnc(N)c2)ccc1Cl` [Example 26, 2-amino-N-(5-chloro-6-(2-(methyl-d3)phenyl)pyridin-2-yl)pyridine-4-sulfonamide], under setting [2], the Emax stood at 450% and the negative-log EC50 (pEC50) is 5.66.
On to `CC(C)c1ccccc1-c1nc(NS(=O)(=O)c2cccc(N)n2)ccc1F` [Example 35, 6-amino-N-(5-fluoro-6-(2-isopropylphenyl)pyridin-2-yl)pyridine-2-sulfonamide], for which, under setting [2], the Emax was 398% and the negative-log EC50 (pEC50) was 5.68.
As to `Cc1ccccc1-c1nc(NS(=O)(=O)c2cccc(N3CC(C(=O)O)C3)n2)ccc1C(F)(F)F` [Example 330, 1-(6-(N-(6-(o-tolyl)-5-(trifluoromethyl)pyridin-2-yl)sulfamoyl)pyridin-2-yl)azetidine-3-carboxylic Acid], under setting [2], the Emax came out at 9.1% and the negative logarithm of the EC50 (pEC50) is 5.64.
Take `Cc1ccccc1-c1nc(NS(=O)(=O)c2cccc(N[C@@H]3CCC[C@H](C(=O)O)C3)n2)ccc1C(F)(F)F` (relative stereo) [Example 461, (1,3-cis)-3-((6-(N-(6-(o-tolyl)-5-(trifluoromethyl)pyridin-2-yl)sulfamoyl)pyridin-2-yl)amino)cyclohexanecarboxylic Acid]: under setting [1], the negative-log EC50 (pEC50) is 5.71. In addition, the Emax (surface expression Amax) turned out to be 392%.
For `CC1(C(=O)O)CCN(c2cccc(S(=O)(=O)Nc3ccc(Cl)c(-c4ccc(F)cc4Cl)n3)n2)CC1` [Example 243, 1-(6-(N-(5-chloro-6-(2-chloro-4-fluorophenyl)pyridin-2-yl)sulfamoyl)pyridin-2-yl)-4-methylpiperidine-4-carboxylic Acid], under setting [2], the Emax worked out at 152% and the pEC50 is 5.59.
The corresponding values for `Cc1ccc(NS(=O)(=O)c2cccc(N)n2)nc1-c1ccccc1Cl` [Example 77, 6-amino-N-(6-(2-chlorophenyl)-5-methylpyridin-2-yl)pyridine-2-sulfonamide Hydrochloride] are 152% and 5.59.
The corresponding values for `CC1(C(=O)O)CCN(c2cccc(S(=O)(=O)Nc3ccc(C(F)(F)F)c(-c4ccc(F)cc4Cl)n3)n2)CC1` [Example 240, 1-(6-(N-(6-(2-chloro-4-fluorophenyl)-5-(trifluoromethyl)pyridin-2-yl)sulfamoyl)pyridin-2-yl)-4-methylpiperidine-4-carboxylic Acid] are 385% and 5.47.
Consider `CC(C)c1ccccc1-c1nc(NS(=O)(=O)c2cccc(N3CCCC(C)(C(=O)O)C3)n2)ccc1C(F)(F)F` (centres unmarked) [Example 377, 1-(6-(N-(6-(2-isopropylphenyl)-5-(trifluoromethyl)pyridin-2-yl)sulfamoyl)pyridin-2-yl)-3-methylpiperidine-3-carboxylic Acid], for which, under setting [2], the pEC50 is 6.13.
As to `Cc1cccc(C)c1-c1nc(NS(=O)(=O)c2ccc(Br)c(N)n2)ccc1Cl` [Example 81, 6-amino-5-bromo-N-(5-chloro-6-(2,6-dimethylphenyl)pyridin-2-yl)pyridine-2-sulfonamide], under setting [2], the Emax came out at 127% and the negative-log EC50 (pEC50) is 5.70.
In the case of `Cc1ccccc1-c1nc(NS(=O)(=O)c2cccc(N[C@H]3C[C@](C)(C(=O)O)C3)n2)ccc1C(F)(F)F` [Example 365, (1r,3s)-1-methyl-3-[(6-{[6-(2-methylphenyl)-5-(trifluoromethyl)pyridin-2-yl]sulfamoyl}pyridin-2-yl)amino]cyclobutane-1-carboxylic Acid], under setting [2], the Emax is 166% and the negative logarithm of the EC50 (pEC50) was 5.72.
For the compound `C[C@]1(C(=O)O)CCCN(c2cccc(S(=O)(=O)Nc3ccc(C(F)(F)F)c(-c4ccccc4C4CC4)n3)n2)C1` [Example 429, (S)-1-(6-(N-(6-(2-cyclopropylphenyl)-5-(trifluoromethyl)pyridin-2-yl)sulfamoyl)pyridin-2-yl)-3-methylpiperidine-3-carboxylic Acid], the negative-log EC50 (pEC50) under setting [1] is 6.08. Further, the Emax (surface expression Amax) was found to be 541%.
Taken in the same sequence, the figures for `CC(C)c1ccccc1-c1nc(NS(=O)(=O)c2cccc(N3CCC[C@@](C)(C(=O)O)C3)n2)ccc1Cl` [Example 392, (R)-1-(6-(N-(5-chloro-6-(2-isopropylphenyl)pyridin-2-yl)sulfamoyl)pyridin-2-yl)-3-methylpiperidine-3-carboxylic Acid] were 6.28 and 460%.
Consider `CCCC1(C(=O)O)CCCN(c2cccc(S(=O)(=O)Nc3ccc(Cl)c(-c4c(C)cccc4C)n3)n2)C1` (centres unmarked) [Example 457, 1-(6-(N-(5-chloro-6-(2,6-dimethylphenyl)pyridin-2-yl)sulfamoyl)pyridin-2-yl)-3-propylpiperidine-3-carboxylic Acid], for which, under setting [1], the negative-log EC50 (pEC50) was 6.21. For the setting “surface expression Amax”, the Emax worked out at 702%.
In the case of `Cc1ccc(C#N)cc1-c1nc(NS(=O)(=O)c2ccnc(N)c2)ccc1Cl` [Example 85, 2-amino-N-(5-chloro-6-(5-cyano-2-methylphenyl)pyridin-2-yl)pyridine-4-sulfonamide], under setting [2], the Emax was found to be 110% and the pEC50 was 5.43.
With `CC1(C(=O)O)CCCN(c2cccc(S(=O)(=O)Nc3ccc(Cl)c(-c4ccccc4C4CC4)n3)n2)C1` (centres unmarked) [Example 431, 1-(6-(N-(5-chloro-6-(2-cyclopropylphenyl)pyridin-2-yl)sulfamoyl)pyridin-2-yl)-3-methylpiperidine-3-carboxylic Acid], the pEC50 under setting [1] is 5.76. Further, the Emax (surface expression Amax) was found to be 763%.

The term pEC50 denotes the EC50 on a negative log10 scale, so that one unit is a factor of ten.
